Source: patent US10544152B2, “5-HT2CR agonist analogs” (The Board of Regents of The University of Texas System, priority 2017, dated 2020)
Where two headings read alike, the source gives them in different places.

Assays:
5-HT2CR [1] = target: T1, 5-HT2CR (Homo sapiens (Human), UniProt P28335); experiment: Intracellular calcium (Cai++) release assay, FLIPR Calcium 4, U2OS cells stably expressing 5-HT2CR; type: cell-based; settings: for Emax: % Cai++ release obtained with 1 μM of WAY163909 (1), U2OS cells expressing human 5-HT2CR; for EC50: Cai++ release, U2OS cell line stably expressing human 5-HT2CR, mean ± SEM, at least three independent experiments
Description: The PathHunter® U2OS HTR2C β-Arrestin cell line (5-HT2cR-U2OS; DiscoveRx) stably express the nonedited human 5-HT2CR isoform (h5-HT2CR). The 5-HT2CR-U2OS cells were grown in Assay Complete™ U2OS Medium 31 (DiscoveRx) at 37° C., 5% CO2 and 85% relative humidity according to manufacturer's recommendations utilizing AssayComplete™ Cell Detachment Reagent (DiscoveRx). Cells were passaged at 70-80% confluence and all experiments were conducted using cells in log phase growth.
The ability of the molecules to act as agonists to induce 5-HT2CR-mediated intracellular calcium (Cai^++) release was conducted in an U2OS cell line stably expressing the human 5-HT2CR.
Intracellular calcium (Cai^++) release was monitored using the FLIPR Calcium 4 Assay Kit (Molecular Devices) according to previously published protocols with minor modifications. See, e.g., Shashack, M. J., et al., ACS Chem Neurosci. 2 (11), 640-644 (2011); Seitz, P. K.; Bremer, N. M., et al., BMC Neurosci. 13, 25 (2012).
Cells were plated at 5,000-7,000 cells/well in Assay Complete™ Cell Plating Reagent 16 (DiscoveRx) in black-sided, clear bottomed 96-well tissue culture plates and allowed to adhere overnight. Medium was removed and replaced with 40 μl Hank's balanced salt solution without calcium, magnesium and phenol red (HBSS; Corning) plus 40 μl Calcium 4 dye solution in Buffer B supplemented with 2.5 mM probenecid (Sigma-Aldrich) to inhibit extracellular dye transport. Plates were incubated for 60 min at 37° C. followed by 30 min at room temperature in the dark.
Fluorescence (λex=485 nm, λem=525 nm) was measured using a FlexStation3 (Molecular Devices). Baseline was established for 17 secs before addition of 20 μl vehicle (HBSS without calcium or magnesium) or 5× concentrated compound. […] Maximum peak height was determined using FlexStation software (SoftMax Pro 5.4). After the final readings, cells were fixed in 2% paraformaldehyde overnight.
Peak responses from each well were normalized to total cell mass as determined with crystal violet staining. See e.g., Ding, C. et al., ACS Chem. Neurosci 3 (7), 538-545 (2012). […] Potency of the compounds was determined using the EC50 (concentration of compound required to achieve half-maximal response). The EC50 values were determined using 4-parameter nonlinear regression analysis and calculated from at least three independent experiments, each conducted in triplicate, and are presented as mean±SEM. Ratkowsky, D. A., et al., Biometrics 42, 575-582 (1986).

5-HT2AR = 5-HT2AR (Homo sapiens (Human), UniProt P28223); experiment: CEREP radioligand displacement of [125I]-(±)-DOI at 5-HT2AR; settings: read-out: mean percent inhibition of control specific binding, 5-HT2AR
Description: (§1) Compounds were submitted to CEREP to determine receptor selectivity at the 5-HT2 Compounds were tested at a single concentration of 10 μM in duplicate to determine their ability to displace [^125I]-(±)-DOI. The data are presented as mean percent inhibition of control specific binding for compound tested at each receptor subtype (Table 2). Significant inhibition is considered >50%; 25-50% inhibition is indicative of weak to moderate effects.

5-HT2BR = 5-HT2BR (Homo sapiens (Human), UniProt P41595); experiment: CEREP radioligand displacement of [125I]-(±)-DOI at 5-HT2BR; settings: duplicate, read-out: mean percent inhibition of control specific binding, 5-HT2BR
Description: as §1

5-HT2CR [2] = target: T1, 5-HT2CR; experiment: CEREP radioligand displacement of [125I]-(±)-DOI at 5-HT2CR; settings: duplicate, read-out: mean percent inhibition of control specific binding, 5-HT2CR
Description: as §1

Sequence of 5-HT2BR (P41595 whole entry): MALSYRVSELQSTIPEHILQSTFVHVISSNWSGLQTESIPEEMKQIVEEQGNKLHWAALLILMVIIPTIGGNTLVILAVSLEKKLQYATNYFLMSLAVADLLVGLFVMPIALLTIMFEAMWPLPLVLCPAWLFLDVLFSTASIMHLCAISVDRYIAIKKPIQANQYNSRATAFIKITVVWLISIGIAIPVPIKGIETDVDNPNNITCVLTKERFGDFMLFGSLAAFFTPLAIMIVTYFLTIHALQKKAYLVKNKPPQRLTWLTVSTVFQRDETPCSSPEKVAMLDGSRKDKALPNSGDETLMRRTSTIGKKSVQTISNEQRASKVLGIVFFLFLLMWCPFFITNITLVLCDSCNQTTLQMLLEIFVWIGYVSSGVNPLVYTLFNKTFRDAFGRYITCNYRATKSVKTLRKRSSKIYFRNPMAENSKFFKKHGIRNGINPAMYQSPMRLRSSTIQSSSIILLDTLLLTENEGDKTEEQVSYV
Sequence of 5-HT2AR (P28223 whole entry): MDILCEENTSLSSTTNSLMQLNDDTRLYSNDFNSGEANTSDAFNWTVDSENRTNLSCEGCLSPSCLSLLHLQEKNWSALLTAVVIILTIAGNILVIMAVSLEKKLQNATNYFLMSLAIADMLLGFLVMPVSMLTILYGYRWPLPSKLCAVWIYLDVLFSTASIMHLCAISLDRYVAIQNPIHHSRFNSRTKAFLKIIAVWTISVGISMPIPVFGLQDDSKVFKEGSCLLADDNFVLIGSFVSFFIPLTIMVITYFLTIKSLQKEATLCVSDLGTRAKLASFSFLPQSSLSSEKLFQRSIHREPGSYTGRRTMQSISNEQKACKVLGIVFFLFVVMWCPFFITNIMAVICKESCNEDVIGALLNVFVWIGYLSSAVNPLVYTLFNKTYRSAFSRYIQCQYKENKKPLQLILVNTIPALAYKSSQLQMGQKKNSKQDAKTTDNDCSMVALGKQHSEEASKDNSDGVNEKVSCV
T1 sequence (P28335 33-458): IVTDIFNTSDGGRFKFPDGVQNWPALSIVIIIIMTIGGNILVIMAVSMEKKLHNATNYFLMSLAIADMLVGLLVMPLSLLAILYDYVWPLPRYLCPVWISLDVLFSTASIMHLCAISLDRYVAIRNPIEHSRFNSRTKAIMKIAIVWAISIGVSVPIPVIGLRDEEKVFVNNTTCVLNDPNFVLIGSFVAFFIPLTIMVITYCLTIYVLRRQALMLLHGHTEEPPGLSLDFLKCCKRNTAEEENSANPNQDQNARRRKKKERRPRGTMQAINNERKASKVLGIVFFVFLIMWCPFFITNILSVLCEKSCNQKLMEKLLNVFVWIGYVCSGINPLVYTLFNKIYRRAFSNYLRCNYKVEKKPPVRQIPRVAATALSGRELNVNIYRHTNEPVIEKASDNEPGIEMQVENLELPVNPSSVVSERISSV

| Emax (5-HT2CR [1]) | EC50 (5-HT2CR [1]) | SMILES | inhibition at 10 µM (5-HT2AR) | inhibition at 10 µM (5-HT2BR) | inhibition at 10 µM (5-HT2CR [2]) | inhibition at 10 µM (5-HT2AR; 10 μM, duplicate, displacement of [125I]-(±)-DOI) |
| --- | --- | --- | --- | --- | --- | --- |
| 95.2 ± 2.3% | 575 ± 112 nM | C#CCOCCOCCOCCOc1ccc2c3c1C1CCCC1N3CCNC2 (stereo not shown) [Compound 46, 7-(2-(2-(2-(prop-2-ynyloxy)ethoxy)ethoxy)ethoxy)-2,3,4,7b,8,9,10,10a-octahydro-1H-cyclopenta[b][1,4]diazepino[6,7,1-hi]indole] |  |  |  |  |
| 95.9 ± 1.5% | 1480 ± 238 nM | COc1cc2c3c(c1)[C@H]1CCC[C@H]1N3CCNC2 (racemic) [Compound 17] |  |  |  |  |
| 95.9 ± 2.6% | 119 ± 11.5 nM | Oc1ccc2c3c1[C@H]1CCC[C@H]1N3CCNC2 (racemic) [Compound 35] |  |  |  |  |
| 103 ± 4.6% | 2.4 ± 0.4 nM | COc1ccc2c3c1C1CCCC1N3CCNC2 (racemic) [Compound 18, 7-methoxy-2,3,4,7b,8,9,10,10a-octahydro-1H-cyclopenta[b][1,4]diazepino[6,7,1-hi]indole] |  |  |  |  |
| 97.2 ± 2.3% | 51.9 ± 9.6 nM | C#CCOCCOc1ccc2c3c1C1CCCC1N3CCNC2 (racemic) [Compound 44, 7-(2-(Prop-2-ynyloxy)ethoxy)-2,3,4,7b,8,9,10,10a-octahydro-1H-cyclopenta[b][1,4]diazepino[6,7,1-hi]indole] |  |  |  |  |
| 100% | 0.33 ± 0.1 nM | OCCc1c[nH]c2ccc(O)cc12 [Compound 27, reference compound] |  |  |  |  |

| SMILES | Emax (5-HT2CR [1]) | EC50 (5-HT2CR [1]) | inhibition at 10 µM (5-HT2AR) | inhibition at 10 µM (5-HT2BR) | inhibition at 10 µM (5-HT2CR [2]) | inhibition at 10 µM (5-HT2AR; 10 μM, duplicate, displacement of [125I]-(±)-DOI) |
| --- | --- | --- | --- | --- | --- | --- |
| COc1ccc2c3c1[C@@H]1CCC[C@@H]1N3CCNC2 (stereo in doubt) [Compound 37, 7-methoxy-2,3,4,7b,8,9,10,10a-octahydro-1H-cyclopenta[b][1,4]diazepino[6,7,1-hi]indole] | 97.6 ± 4.7% | 72.4 ± 14.5 nM | 22.8% | 4.8% | 91.5% |  |
| COc1ccc2c3c1[C@H]1CCC[C@H]1N3CCNC2 (racemic) [Compound 36, 7-methoxy-2,3,4,7b,8,9,10,10a-octahydro-1H-cyclopenta[b][1,4]diazepino[6,7,1-hi]indole] | 105 ± 6.1% | 1.2 ± 0.3 nM | 86.5% | 98.6% | 100% |  |
| c1cc2c3c(c1)[C@H]1CCC[C@H]1N3CCNC2 (racemic) [Compound 1, (7bR,10aR)-1,2,3,4,8,9,10,10a-octahydro-7bH-cyclopenta-[b][1,4]diazepino[6,7,1hi]indole, reference compound] | 100% |  |  |  |  |  |
| C#CCOCCOCCOc1ccc2c3c1C1CCCC1N3CCNC2 (racemic) [Compound 45, 7-(2-(2-(prop-2-ynyloxy)ethoxy)ethoxy)-2,3,4,7b,8,9,10,10a-octahydro-1H-cyclopenta[b][1,4]diazepino[6,7,1-hi]indole] | 99.3 ± 2.2% | 218 ± 53.1 nM |  | 67.7% | 99.6% | 67.1% |
